Data taken from PMC5011342, “A high throughput drug screening assay to identify compounds that promote oligodendrocyte differentiation using acutely dissociated and purified oligodendrocyte precursor cells” (BMC Research Notes, 2016).
Where two headings read alike, the source gives them in different places.

Key:
expanded OPCs = experiment: cells; details: for viability at 0.1 µM / viability at 1 µM / viability at 10 µM: Rattus norvegicus, 72 h; for viability at 0.1 µM: read-out: 0.1 µM (% DMSO), alamarBlue viability, NCC library compound at 0.1 µM, sheet "All Tox data"; for viability at 1 µM: read-out: 1 µM (% DMSO), alamarBlue viability, NCC library compound at 1 µM, sheet "All Tox data"; for viability at 10 µM: read-out: 10 µM (% DMSO), alamarBlue viability, NCC library compound at 10 µM, sheet "All Tox data"
Procedure, shortened: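 Expanded OPCs seeded at 10,000 cells/well in differentiation media, then exposed to NCC library compounds at 10, 1 and 0.1 µM (quadruplicate, 0.1% DMSO) for three days. Viability read as alamarBlue fluorescence (560/590 nm) after 4 h at 37 °C; tunicamycin 5 ng/ml served as toxicity control.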

[1] = tested on: acutely dissociated and purified rat OPCs; experiment: Acute OL differentiation assay (MBP expression/cell, immunofluorescent image quantification); format: cell-based; details: sheet "All OLga data"; for activation at 2 µM / 2 uM (% Quet): test compound at 2 uM; for activation at 2 µM: read-out: 2 uM (% Quet); for activation at 10 µM / 10 uM (% Quet): test compound at 10 uM; for activation at 10 µM: read-out: 10 uM (% Quet)
Procedure, shortened: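 Oligodendrocyte precursor cells were enriched from P6-P7 Sprague–Dawley rat brains by immunopanning (RAN-2 and GalC depletion, O4 selection), plated at 5000 cells/well in serum-free, mitogen-free differentiation media on PDL/laminin 96-well view plates, centrifuged at 200×g, and pre-incubated 1–2 h before test compounds were added in quadruplicate. On DIV4, cells were fixed, stained for MBP and DAPI, imaged automatically, and MBP expression per cell was quantified.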

[2] = alamarBlue viability of expanded OPCs, compound at 0.1 µM, relative to DMSO control
[3] = alamarBlue viability of expanded OPCs, compound at 1 µM, relative to DMSO control
[4] = alamarBlue viability of expanded OPCs, compound at 10 µM, relative to DMSO control
[5] = Rattus norvegicus, MBP expression relative to quetiapine, NCC library screen
[6] = Rattus norvegicus, NCC library screen, relative to quetiapine
[7] = alamarBlue viability, NCC library compound at 0.1 µM, sheet "All Tox data"
[8] = alamarBlue viability, NCC library compound at 1 µM, sheet "All Tox data"
[9] = alamarBlue viability, NCC library compound at 10 µM, sheet "All Tox data"
[10] = NCC library screen, relative to quetiapine

| Compound | 0.1 µM (% DMSO) (expanded OPCs; [2]) | 1 µM (% DMSO) (expanded OPCs; [3]) | 10 µM (% DMSO) (expanded OPCs; [4]) | activation at 2 µM [1, 6] | activation at 10 µM [1, 6] | viability at 0.1 µM (expanded OPCs) | viability at 1 µM (expanded OPCs) | viability at 10 µM (expanded OPCs) | further results |
| --- | --- | --- | --- | --- | --- | --- | --- | --- | --- |
| COc1c(N2CCNC(C)C2)c(F)cc2c(=O)c(C(=O)O)cn(C3CC3)c12 (centres unmarked) [Gatifloxacin] | 99.4 % DMSO | 98.0 % DMSO | 96.4 % DMSO |  |  |  |  |  | activation at 2 µM [1, 5]: 34.6%; activation at 10 µM [1, 5]: 24.6% |
| Cc1ccc(C)c(OCCCC(C)(C)C(=O)O)c1 [Gemfibrozil] | 90.1 % DMSO | 88.1 % DMSO | 86.3 % DMSO | 0.66% | 16.1% |  |  |  |  |
| CCC1=C(C)CN(C(=O)NCCc2ccc(S(=O)(=O)NC(=O)N[C@H]3CC[C@H](C)CC3)cc2)C1=O [Glimepiride] |  |  |  | -12.7% | -54% | 97.2% | 82.6% | 83.6% |  |
| Cc1cnc(C(=O)NCCc2ccc(S(=O)(=O)NC(=O)NC3CCCCC3)cc2)cn1 [Glipizide] | 88.0 % DMSO | 86.3 % DMSO | 83.0 % DMSO | 6.4% | 8.4% |  |  |  |  |
| COc1ccc(Cl)cc1C(=O)NCCc1ccc(S(=O)(=O)NC(=O)NC2CCCCC2)cc1 [Glyburide] | 95.4 % DMSO | 91.5 % DMSO | 85.2 % DMSO | -19.5% | -20.2% |  |  |  |  |
| C[N+]1(C)CCC(OC(=O)C(O)(c2ccccc2)C2CCCC2)C1 (centres unmarked) [Glycopyrrolate] | 100.4 % DMSO | 104.4 % DMSO | 113.1 % DMSO | 7.1% | 19.5% | 96.7% | 91.4% | 115% | activation at 2 µM [1, 5]: 26.7%; activation at 10 µM [1, 5]: 27.6% |
| CC(C)C[C@H](NC(=O)[C@@H](COC(C)(C)C)NC(=O)[C@H](Cc1ccc(O)cc1)NC(=O)[C@H](CO)NC(=O)[C@H](Cc1c[nH]c2ccccc12)NC(=O)[C@H](Cc1cnc[nH]1)NC(=O)[C@@H]1CCC(=O)N1)C(=O)N[C@@H](CCCNC(=N)N)C(=O)N1CCC[C@H]1C(=O)NNC(N)=O [Goserelin] |  |  |  |  |  |  |  |  | 0.1 µM (% DMSO) (expanded OPCs; [7]): 95.7 % DMSO; 1 µM (% DMSO) (expanded OPCs; [8]): 94.5 % DMSO; 10 µM (% DMSO) (expanded OPCs; [9]): 97.2 % DMSO; 2 uM (% Quet) [1, 10]: -6.3 % Quet; 10 uM (% Quet) [1, 10]: 5.4 % Quet |
| CN1C2CCCC1CC(NC(=O)c1nn(C)c3ccccc13)C2 (centres unmarked) [Granisetron] |  |  |  | -25.3% | -23.7% | 84.1% | 87.1% | 72.4% |  |
| COC1=CC(=O)C[C@@H](C)[C@]12Oc1c(Cl)c(OC)cc(OC)c1C2=O [Griseofulvin] | 95.9 % DMSO | 93.1 % DMSO | 66.2 % DMSO |  |  |  |  |  | activation at 2 µM [1, 5]: -7.2%; activation at 10 µM [1, 5]: -53.4% |
| N=C(N)N [Guanidine] |  |  |  |  |  |  |  |  | 0.1 µM (% DMSO) (expanded OPCs; [7]): 86.5 % DMSO; 1 µM (% DMSO) (expanded OPCs; [8]): 89.1 % DMSO; 10 µM (% DMSO) (expanded OPCs; [9]): 85.5 % DMSO; 2 uM (% Quet) [1, 10]: 1.4 % Quet; 10 uM (% Quet) [1, 10]: 5.3 % Quet |
| C[C@@H]1C[C@H]2[C@@H]3C[C@H](F)C4=CC(=O)C(Cl)=C[C@]4(C)[C@@]3(F)[C@@H](O)C[C@]2(C)[C@@]1(O)C(=O)CO.O [Halometasone hydrate] |  |  |  |  |  |  |  |  | 0.1 µM (% DMSO) (expanded OPCs; alamarBlue viability of expanded OPCs, compound at 0.1 µM, sheet All Tox data): 103.7 % DMSO; 1 µM (% DMSO) (expanded OPCs; alamarBlue viability of expanded OPCs, compound at 1 µM, sheet All Tox data): 109.3 % DMSO; 10 µM (% DMSO) (expanded OPCs; alamarBlue viability of expanded OPCs, compound at 10 µM, sheet All Tox data): 105.9 % DMSO; OL differentiation, 2 uM (% Quet) ([1]; 2 uM test compound, relative to quetiapine): -42.5 % Quet; OL differentiation, 10 uM (% Quet) ([1]; 10 uM test compound, relative to quetiapine): -89.7 % Quet |
| O=C(CCCN1CCC(O)(c2ccc(Cl)cc2)CC1)c1ccc(F)cc1 [Haloperidol] |  |  |  | 4.1% |  | 64% | 69.1% | 45.7% | activation at 0.4 µM ([1]; Rattus norvegicus, test compound at 0.4 uM, NCC library screen, relative to quetiapine, read-out: 0.4 uM (% Quet)): -22.3% |
